This note sets out measurements from patent publication US8741854B2, “Compositions and methods for feeding poultry” (Bioenergy, Inc., priority 2009, dated 2014).

The test system of the assay is male chicks of a commercial breed, "Cobb 500". In words: D-ribose supplementation of broiler chicks raised on a challenged rapid growth regimen. Conditions: D-ribose in drinking water, about 200 mg/kg body weight/day. Format: in vivo, chicken (broiler chicks).

For the setting “days 0 to 43, challenged environment, approximately 5200 feet elevation, control 27.6%”, `O=C[C@H](O)[C@H](O)[C@H](O)CO` [D-ribose] had an observed cardiomyopathic incidences of 15.1%. For the same compound, the “average weight and feed conversion versus control” value (birds weighed days 35 and 43, FIG. 1) was “slightly better in the control group, but the differences were not statistically significant”.
